Test results reported in US20240132464A1, “HETEROCYCLIC COMPOUNDS AS E3 LIGASE INHIBITORS” (Accutar Biotechnology Inc., priority 2022, published 2024).

The compounds below were run against T1, GID4 (Uniprot ID: Q81VV7, residues 124-289) (Homo sapiens, UniProt Q8IVV7) (assay: GID4 competitive binding assay (AlphaScreen, GID4/degron peptide PGLW)). Conditions: 24 nM GID4, 48 nM biotinylated degron peptide PGLW, 4° C., read-out: IC50 (Inhibition of GID4/Degron binding by test compounds).
T1 construct: GID4 (Uniprot ID: Q81VV7, residues 124-289)
T1 sequence (Q8IVV7 124-289): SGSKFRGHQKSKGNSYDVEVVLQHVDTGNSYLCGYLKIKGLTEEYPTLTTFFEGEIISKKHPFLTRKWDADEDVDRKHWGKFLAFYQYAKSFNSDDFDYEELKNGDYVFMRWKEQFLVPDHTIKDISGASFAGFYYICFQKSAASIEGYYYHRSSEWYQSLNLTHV
Procedure, shortened: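 His-tagged human GID4 (residues 124-289, 24 nM) pre-incubated 2 h at 4 °C with 48 nM biotinylated PGLW peptide and compound in HEPES pH 7.5 buffer, 2% DMSO (final). AlphaScreen streptavidin donor/Ni-NTA acceptor beads added for 1 h; IC50 from nonlinear fit of % inhibition versus DMSO.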
For `COC1CCN(C(=O)c2n[nH]c3ccc(-c4ccc5ccnc(N)c5c4)cc23)CC1` [Compound 332, (5-(1-aminoisoquinolin-7-yl)-1H-indazol-3-yl)(4-methoxypiperidin-1-yl)methanone], the IC50 was under 500 nM. `CN(C)CCCNC(=O)c1ccc(-c2cc(O)c3nc(N)ccc3c2)cc1` [Compound 261, 4-(2-amino-8-hydroxyquinolin-6-yl)-N-(3-(dimethylamino)propyl)benzamide] gave an IC50 of under 500 nM. `Nc1cc(N2CCCC(c3cnc4ncccn34)C2)nc(N)n1` (stereo not shown) [Compound 241, 6-(3-(imidazo[1,2-a]pyrimidin-3-yl)piperidin-1-yl)pyrimidine-2,4-diamine] was tested, and the IC50 was over 5000 nM. For `CN(C)CCCNC(=O)c1cccc(-c2ccc3ccnc(N)c3n2)c1` [Compound 340, 3-(8-amino-1,7-naphthyridin-2-yl)-N-(3-(dimethylamino)propyl)benzamide], the IC50 was over 5000 nM. `CC(C)c1cc(N2CCCC(c3cnc4ccccn34)C2)nc(NCCO)n1` (stereo not shown) [Compound 127, 2-((4-(3-(imidazo[1,2-a]pyridin-3-yl)piperidin-1-yl)-6-isopropylpyrimidin-2-yl)amino)ethan-1-ol] showed an IC50 of over 5000 nM. In the case of `CN(C)CCCNC(=O)c1c[nH]c(-c2cc(O)c3ncccc3c2)n1` [Compound 277, N-(3-(dimethylamino)propyl)-2-(8-hydroxyquinolin-6-yl)-1H-imidazole-4-carboxamide], the IC50 is reported as under 500 nM. `CC(C)c1cc(N2CCCC(c3cnc4ccccn34)C2)c2nc[nH]c2n1` (stereo not shown) [Compound 19, 7-(3-(imidazo[1,2-a]pyridin-3-yl)piperidin-1-yl)-5-isopropyl-3H-imidazo[4,5-b]pyridine] showed an IC50 of under 500 nM. `CC(C)c1cc(N2CCNC(c3csc4ccccc34)C2)nc(N)n1` (stereo not shown) [Compound 162, 4-(3-(benzo[b]thiophen-3-yl)piperazin-1-yl)-6-isopropylpyrimidin-2-amine] was tested, and the IC50 was 500 to 5000 nM. For `Nc1nc(N2CCN[C@@H](c3ccccc3Br)C2)c2cc[nH]c2n1` (racemic) [Compound 57, (S/R)-4-(3-(2-bromophenyl)piperazin-1-yl)-7H-pyrrolo[2,3-d]pyrimidin-2-amine], the IC50 was 500 to 5000 nM. `c1ccn2c(C3CCCN(c4ccnc5[nH]ccc45)C3)cnc2c1` (stereo not shown) [Compound 91, 3-(1-(1H-pyrrolo[2,3-b]pyridin-4-yl)piperidin-3-yl)imidazo[1,2-a]pyridine] was tested, and the IC50 was under 500 nM.
